In ChEMBL document CHEMBL1921725, “Synthesis and SAR development of novel P2X7 receptor antagonists for the treatment of pain: part 2” (Bioorg Med Chem Lett, 2011):
Activity calls are given as the source filed them. The rule behind the calls is not given here.

Columns and labels:
P2X purinoceptor 7 [1] = biological target: T1, P2X purinoceptor 7 (Homo sapiens, UniProt Q99572); assay: Antagonist activity at P2X7 receptor in LPS-stimulated human whole blood assessed as inhibition of ATP-induced IL1-beta production treated 30 mins before LPS challenge measured after 3 hrs by ELISA; format: functional, tissue-based
T1 sequence (Q99572 whole entry): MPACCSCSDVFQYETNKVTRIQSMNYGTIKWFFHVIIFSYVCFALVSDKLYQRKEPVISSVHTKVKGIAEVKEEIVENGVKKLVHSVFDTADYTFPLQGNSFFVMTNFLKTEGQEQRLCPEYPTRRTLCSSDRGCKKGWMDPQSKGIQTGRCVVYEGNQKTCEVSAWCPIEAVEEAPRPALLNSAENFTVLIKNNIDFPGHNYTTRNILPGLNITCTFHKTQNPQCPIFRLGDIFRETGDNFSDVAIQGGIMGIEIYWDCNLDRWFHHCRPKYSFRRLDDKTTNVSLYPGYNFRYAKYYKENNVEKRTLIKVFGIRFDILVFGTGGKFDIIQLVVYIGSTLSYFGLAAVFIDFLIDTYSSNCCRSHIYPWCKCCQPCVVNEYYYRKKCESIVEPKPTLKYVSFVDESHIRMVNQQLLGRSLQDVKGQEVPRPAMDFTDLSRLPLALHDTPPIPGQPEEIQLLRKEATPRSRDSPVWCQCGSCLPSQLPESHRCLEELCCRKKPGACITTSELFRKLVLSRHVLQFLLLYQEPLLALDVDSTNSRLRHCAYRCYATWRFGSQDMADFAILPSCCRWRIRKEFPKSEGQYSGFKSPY

[2] = AUC in rapid rat model at 10 mg/kg, po; format: ADME, organism-based; parameters: dose 10 mg/kg, route oral; conditions: in vivo
[3] = Plasma concentration in rapid rat model plasma at 10 mg/kg, po after 6 hrs; format: ADME, organism-based; parameters: dose 10 mg/kg, route oral
Rattus norvegicus [4] = assay: Analgesic activity in rat spinal nerve ligation neuropathic pain model at 10 to 30 mg/kg, po after 4 hrs relative to pregabalin; format: functional, organism-based
Rattus norvegicus [5] = assay: Analgesic activity in rat chronic constriction injury neuroinflammatory pain model at 60 mg/kg, po after 4 hrs relative to gabapentin; format: functional, organism-based; parameters: dose 60 mg/kg
Rattus norvegicus [6] = assay: Analgesic activity in rat chronic constriction injury neuroinflammatory pain model at 1 to 3 mg/kg, po after 4 hrs; format: functional, organism-based
Rattus norvegicus [7] = assay: Antihyperalgesic activity in rat mono-iodacetate-induced hyperalgesia model at 50 mg/kg, po after 4 hrs relative to naproxen; format: functional, organism-based; parameters: dose 50 mg/kg
[8] = Inhibition of chloride channel at 10 uM
[9] = Inhibition of L-type calcium channel diltiazem binding site at 10 uM
Rattus norvegicus [10] = assay: Analgesic activity in rat streptozocin-induced diabetic neuropathy model at 10 mg/kg, po after 4 hrs; format: functional, organism-based; parameters: dose 10 mg/kg
Rattus norvegicus [11] = assay: Antihyperalgesic activity in rat mono-iodacetate-induced hyperalgesia model at 1 to 3 mg/kg, po after 4 hrs; format: functional, organism-based
[12] = biological target: Sodium-dependent noradrenaline transporter (Homo sapiens) (UniProt P23975); assay: Inhibition of norepinephrine transporter at 10 uM
Sequence of Sodium-dependent noradrenaline transporter (Homo sapiens) (P23975 whole entry): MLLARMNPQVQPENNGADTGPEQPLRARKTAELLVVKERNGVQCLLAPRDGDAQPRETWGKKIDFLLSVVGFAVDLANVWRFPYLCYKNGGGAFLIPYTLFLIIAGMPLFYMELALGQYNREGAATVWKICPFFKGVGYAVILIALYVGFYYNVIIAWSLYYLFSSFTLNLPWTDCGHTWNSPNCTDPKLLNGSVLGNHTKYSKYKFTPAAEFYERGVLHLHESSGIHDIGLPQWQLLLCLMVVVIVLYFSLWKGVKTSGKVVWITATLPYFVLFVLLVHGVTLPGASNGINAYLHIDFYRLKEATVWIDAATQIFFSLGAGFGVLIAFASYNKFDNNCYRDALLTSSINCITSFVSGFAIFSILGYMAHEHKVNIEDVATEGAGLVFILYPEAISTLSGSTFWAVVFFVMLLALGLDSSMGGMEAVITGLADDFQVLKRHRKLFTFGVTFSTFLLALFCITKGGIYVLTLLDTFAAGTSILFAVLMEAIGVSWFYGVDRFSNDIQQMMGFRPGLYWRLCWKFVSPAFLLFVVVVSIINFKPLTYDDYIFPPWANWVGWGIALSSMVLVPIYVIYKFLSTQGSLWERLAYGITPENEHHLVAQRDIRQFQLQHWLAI

Rattus norvegicus [13] = assay: Analgesic activity in rat streptozocin-induced diabetic neuropathy model at 10 mg/kg, po after 4 hrs relative to gabapentin; format: functional, organism-based; parameters: dose 10 mg/kg
[14] = Inhibition of sodium channel site 2 at 10 uM
P2X purinoceptor 7 [15] = biological target: T2, P2X purinoceptor 7 (Rattus norvegicus, UniProt Q64663); assay: Antagonist activity at P2X7 receptor in rat whole blood; format: functional, tissue-based
T2 sequence (Q64663 whole entry): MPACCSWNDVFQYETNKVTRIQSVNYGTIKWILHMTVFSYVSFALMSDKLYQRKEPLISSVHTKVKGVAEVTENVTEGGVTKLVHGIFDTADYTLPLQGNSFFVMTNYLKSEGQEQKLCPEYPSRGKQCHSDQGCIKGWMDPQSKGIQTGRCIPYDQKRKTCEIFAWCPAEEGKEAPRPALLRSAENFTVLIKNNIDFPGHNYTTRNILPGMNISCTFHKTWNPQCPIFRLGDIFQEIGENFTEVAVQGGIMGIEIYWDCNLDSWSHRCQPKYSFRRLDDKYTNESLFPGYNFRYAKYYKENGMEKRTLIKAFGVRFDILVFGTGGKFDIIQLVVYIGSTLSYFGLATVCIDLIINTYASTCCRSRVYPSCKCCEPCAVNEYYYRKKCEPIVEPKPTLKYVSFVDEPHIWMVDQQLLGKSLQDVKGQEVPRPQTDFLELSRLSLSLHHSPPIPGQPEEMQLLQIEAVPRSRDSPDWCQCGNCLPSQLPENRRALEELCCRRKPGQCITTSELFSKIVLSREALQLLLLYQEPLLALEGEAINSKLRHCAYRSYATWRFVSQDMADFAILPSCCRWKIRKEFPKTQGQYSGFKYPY

[16] = biological target: T3, P2X purinoceptor 4 (Homo sapiens) (UniProt Q99571); assay: Inhibition of P2X4 receptor at 10 uM
T3 sequence (whole entry): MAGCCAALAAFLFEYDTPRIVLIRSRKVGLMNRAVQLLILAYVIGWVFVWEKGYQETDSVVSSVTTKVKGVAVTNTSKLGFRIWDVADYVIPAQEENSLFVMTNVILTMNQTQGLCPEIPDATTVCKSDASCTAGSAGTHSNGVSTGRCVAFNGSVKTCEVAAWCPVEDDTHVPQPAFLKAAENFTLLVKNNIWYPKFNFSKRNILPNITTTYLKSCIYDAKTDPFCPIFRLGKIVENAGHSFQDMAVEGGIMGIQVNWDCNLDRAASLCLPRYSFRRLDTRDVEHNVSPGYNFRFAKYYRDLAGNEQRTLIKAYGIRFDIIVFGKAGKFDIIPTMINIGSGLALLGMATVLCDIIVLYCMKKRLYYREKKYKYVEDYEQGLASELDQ

Row | SMILES | IC50 (P2X purinoceptor 7 [1]) [nM] | AUC [2] [µM·h] | concentration at 6 h [3] [nM] | also measured
1 | CCN1C(=O)c2nc(-c3ccc(-c4ccccc4)cc3)n(Cc3ccccc3F)c2N2C[C@@H](C(C)C)N=C12 | 937 |  |  | 
2 | CCN1C(=O)c2nc(-c3ccc(-c4ccccc4)cc3)n(Cc3ccc(F)c(F)c3)c2N2CC3(CCCCC3)N=C12 | 388 |  |  | 
3 | CCN1C(=O)c2nc(-c3ccc(-c4cccc(C(F)(F)F)c4)nc3)n(Cc3ccc(F)c(F)c3)c2N2CC(C)(C)N=C12 | 104 | 1.84 | 395 | 
4 | CCN1C(=O)c2nc(-c3ccc(-c4ccc(OC(F)(F)F)cc4)nc3)n(Cc3ccc(F)c(F)c3)c2N2CC(C)(C)N=C12 | 1940 |  |  | 
5 | CCN1C(=O)c2nc(-c3ccc(-c4ccccc4)cc3)n(Cc3ccc(F)cc3F)c2N2CC(C)(C)N=C12 | 700 |  |  | 
6 | CCN1C(=O)c2nc(-c3ccc(-c4ccccc4)cc3)n(Cc3cccc(F)c3)c2N2C[C@@H](C(C)C)N=C12 | 269 |  |  | 
7 | CCN1C(=O)c2nc(-c3ccc(-c4ccccc4)cc3)n(Cc3ccc(F)cc3)c2N2CC(C)(C)N=C12 | 276 |  |  | 
8 | CCN1C(=O)c2nc(-c3ccc(-c4ccccc4)cc3)n(Cc3ccc(F)c(F)c3)c2N2CC(C)(C)N=C12 | 85 | 6.86 | 1370 | Activity (Rattus norvegicus [4]): Active; Activity (Rattus norvegicus [5]): Active; Activity (Rattus norvegicus [6]): Active; Activity (Rattus norvegicus [7]): Active; inhibition [8]: > 80%; inhibition [9]: > 80%; Activity (Rattus norvegicus [10]): Active; Activity (Rattus norvegicus [11]): Active; inhibition [12]: > 80%; Activity (Rattus norvegicus [13]): Active; inhibition [14]: > 80%; IC50 (P2X purinoceptor 7 [15]): 121 nM; inhibition [16]: 55%
9 | CCN1C(=O)c2nc(-c3ccc(-c4cccc(C)c4)nc3)n(Cc3ccc(F)c(F)c3)c2N2CC(C)(C)N=C12 | 25 | 0.231 |  | 
10 | CCN1C(=O)c2nc(-c3ccc(-c4ccc(F)cc4F)nc3)n(Cc3ccc(F)c(F)c3)c2N2CC(C)(C)N=C12 | 95 | 4.14 | 537 | 
11 | CCN1C(=O)c2nc(-c3ccc(-c4ccccc4)nc3)n(Cc3ccc(F)c(F)c3)c2N2CC(C)(C)N=C12 | 24 | 13.7 | 2640 | 
12 | CCN1C(=O)c2nc(-c3ccc(-c4ccccc4)cc3)n(Cc3cc(F)cc(F)c3)c2N2CC(C)(C)N=C12 | 91 |  |  | 
13 | CCN1C(=O)c2nc(-c3ccc(-c4ccc(OC)cc4)nc3)n(Cc3ccc(F)c(F)c3)c2N2CC(C)(C)N=C12 | 50 |  |  | 
14 | CCN1C(=O)c2nc(-c3ccc(-c4ccccc4)cc3)n(Cc3ccc(F)cc3)c2N2C[C@@H](C(C)C)N=C12 | 237 |  |  | 
15 | CCN1C(=O)c2nc(-c3ccc(-c4ccccc4)cc3)n(Cc3ccc(F)c(F)c3)c2N2CCC(C)(C)N=C12 | 108 |  |  | 
16 | CCN1C(=O)c2nc(-c3ccc(-c4ccccc4)cc3)n(Cc3cc(F)cc(F)c3)c2N2C[C@@H](C(C)C)N=C12 | 107 | 1.11 | 93 | 
17 | CCN1C(=O)c2nc(-c3ccc(-c4ccccc4)cc3)n(Cc3cc(F)ccc3F)c2N2C[C@@H](C(C)C)N=C12 | 1040 |  |  | 
18 | CCN1C(=O)c2nc(-c3ccc(-c4ccccc4OC)nc3)n(Cc3ccc(F)c(F)c3)c2N2CC(C)(C)N=C12 | 101 | 1.62 | 224 | 
19 | CCN1C(=O)c2nc(-c3ccc(-c4cccc(F)c4)nc3)n(Cc3ccc(F)c(F)c3)c2N2CC(C)(C)N=C12 | 28 | 3.56 | 897 | 
20 | CCN1C(=O)c2nc(-c3ccc(-c4ccc(C)cc4)nc3)n(Cc3ccc(F)c(F)c3)c2N2CC(C)(C)N=C12 | 39 |  |  | 
21 | CCN1C(=O)c2nc(-c3ccc(-c4cc(F)cc(F)c4)nc3)n(Cc3ccc(F)c(F)c3)c2N2CC(C)(C)N=C12 | 55 | 7.54 | 1260 | 
22 | CCN1C(=O)c2nc(-c3ccc(-c4ccc(C(F)(F)F)cc4)nc3)n(Cc3ccc(F)c(F)c3)c2N2CC(C)(C)N=C12 | 137 | 5.68 | 1570 | 
23 | CCN1C(=O)c2nc(-c3ccc(-c4ccc(F)cc4)nc3)n(Cc3ccc(F)c(F)c3)c2N2CC(C)(C)N=C12 | 45 | 3.56 | 897 | 
24 | CCN1C(=O)c2nc(-c3ccc(-c4cccc(OC(F)(F)F)c4)nc3)n(Cc3ccc(F)c(F)c3)c2N2CC(C)(C)N=C12 | 110 |  |  | 
25 | CCN1C(=O)c2nc(-c3ccc(-c4ccccc4)cc3)n(Cc3ccc(F)c(F)c3)c2N2C[C@@H](C(C)C)N=C12 | 178 | 3.76 | 392 | 
26 | CCN1C(=O)c2nc(-c3ccc(-c4ccccc4)cc3)n(Cc3cccc(F)c3F)c2N2C[C@@H](C(C)C)N=C12 | 870 |  |  | 
27 | CCN1C(=O)c2nc(-c3ccc(-c4ccccc4)cc3)n(Cc3ccc(F)cc3F)c2N2C[C@@H](C(C)C)N=C12 | 845 |  |  | 
28 | CCN1C(=O)c2nc(-c3ccc(-c4ccccc4F)nc3)n(Cc3ccc(F)c(F)c3)c2N2CC(C)(C)N=C12 | 52 | 2.71 | 537 | 
